Assay results from ChEMBL document CHEMBL5500407, “Designing Chromane Derivatives as α2A-Adrenoceptor Selective Agonists via Conformation Constraint” (J Med Chem, 2024).

Target: T1, Alpha-2A adrenergic receptor (Homo sapiens, UniProt P08913)
T1 sequence (P08913 whole entry): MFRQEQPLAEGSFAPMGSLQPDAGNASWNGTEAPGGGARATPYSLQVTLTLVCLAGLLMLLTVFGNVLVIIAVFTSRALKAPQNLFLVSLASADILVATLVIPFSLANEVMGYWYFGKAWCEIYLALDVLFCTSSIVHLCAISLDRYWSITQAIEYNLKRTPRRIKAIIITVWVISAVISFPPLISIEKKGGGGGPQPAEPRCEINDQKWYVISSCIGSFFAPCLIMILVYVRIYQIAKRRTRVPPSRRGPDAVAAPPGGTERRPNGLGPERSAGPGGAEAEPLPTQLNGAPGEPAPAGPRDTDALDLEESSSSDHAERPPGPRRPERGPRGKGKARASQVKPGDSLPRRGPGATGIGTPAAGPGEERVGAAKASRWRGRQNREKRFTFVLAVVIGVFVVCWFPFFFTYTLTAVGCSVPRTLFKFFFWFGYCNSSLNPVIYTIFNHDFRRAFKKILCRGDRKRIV
Description: Agonist activity at alpha2A-adrenoceptor (unknown origin) expressed in CHO-alpha2-AR-PKAcatEGFP cells assessed as intracellular cAMP concentration by measuring PKA translocation after 15 mins incubation by PKA redistribution assay

Row | Compound | EC50 [nM]
1 | Cc1[nH]cnc1C1=CCOc2c(Cl)cccc21 | > 5000
2 | Cc1ccc2c(c1Br)OCC=C2c1c[nH]cn1 | 104
3 | Fc1ccc2c(c1)OCC=C2c1cnc[nH]1 | > 5000
4 | Brc1ccc2c(c1)OCCC2c1c[nH]cn1 (centres undefined) | 165
5 | Fc1ccc2c(c1)OCCC2c1cnc[nH]1 (centres undefined) | 80.9
6 | Clc1ccc2c(c1)C(c1c[nH]cn1)CCO2 (centres undefined) | 64.6
7 | Clc1cc(Br)cc2c1OCC=C2c1c[nH]cn1 | > 5000
8 | Cc1ccc2c(c1)C(c1c[nH]cn1)CCO2 (centres undefined) | 2030
9 | Clc1cc(Cl)c2c(c1)C(c1c[nH]cn1)=CCO2 | 4630
10 | Cc1cccc2c1OCC=C2c1nc[nH]c1C | > 5000
11 | Brc1ccc2c(c1)OCC=C2c1c[nH]cn1 | > 5000
12 | Brc1ccc2c(c1)C(c1c[nH]cn1)CCO2 (centres undefined) | 446
13 | COc1ccc2c(c1)C(c1c[nH]cn1)=CCO2 | > 5000
14 | Brc1ccc2c(c1)C(c1c[nH]cn1)=CCO2 | > 5000
15 | Fc1cccc2c1OCCC2c1c[nH]cn1 (centres undefined) | 56.9
16 | Fc1cccc2c1OCC=C2c1c[nH]cn1 | 77.3
17 | Clc1cccc2c1OCC=C2c1cnc[nH]1 | 12.8
18 | Cc1ccc2c(c1)C(c1c[nH]cn1)=CCO2 | 896
19 | Clc1ccc2c(c1)C(c1cnc[nH]1)=CCO2 | 899
